Laboratory results reported in patent US20060069132A1, “Azolecarboxamide herbicides” (priority 2004, published 2006).

Experiments:
[1] = tested on: wild oat (AVEFA); assay: Test J Compounds 2 and 6 alone and in combination with other herbicides, foliage spray; format: in vivo, Avena fatua; set-up: key: 0 = no effect, 100 = complete control; conditions: applied alone
Excerpt: (§1) Colby's Equation was used to calculate the expected additive herbicidal effect of the mixtures of Compound 6 with Harmony® Extra (i.e. a 2:1 mixture by weight of thifensulfuron-methyl and tribenuron-methyl). […]
(§2) Seeds of test plants consisting of barnyardgrass (ECHCG; Echinochloa crus-galli (L.) Beauv.), blackgrass (ALOMY; Alopecurus myosuroides Huds.), Surinam grass (BRADC; Urochloa decumbens (Staph) R. D. Webster, previously named Brachiaria decumbens Stapf), cocklebur (XANST, Xanthium strumarium L.), corn (ZEAMD, Zea mays L. cv. ‘Pioneer 33G26’), large crabgrass (DIGSA, Digitaria sanguinalis (L.) Scop.), giant foxtail (SETFA, Setaria faberi Herrm.), lambsquarters (CHEAL, Chenopodium album L.), morningglory (IPOCO, Ipomoea coccinea L.), pigweed (AMARE, Amaranthus retroflexus L.), velvetleaf (ABUTH, Abutilon theophrasti Medik.) wheat (TRZAS, Triticum aestivum L. cv. ‘Recital’) and wild oat (AVEFA, Avena fatua L.) were planted in Redi-Earth® planting medium (Scotts Company, 14111 Scottslawn Road, Marysville, Ohio 43041) comprising spaghnum peat moss and vermiculite. […] Also listed in Table J are the expected effects for the mixtures calculated using Colby's Equation.

[2] = tested on: blackgrass (ALOMY); assay: as above; format: in vivo, Alopecurus myosuroides; set-up: key: 0 = no effect, 100 = complete control; conditions: applied alone
Excerpt: as §1, §2

[3] = tested on: wheat cv. Retical; assay: Test H safening on wheat by naphthalic anhydride seed treatment, pre-/postemergence; format: in vivo, Triticum aestivum; set-up: key to Response of wheat, Without naphthalic anhydride seed treatment: 0 = no effect, 100 = complete plant death, vs untreated control
Experimental: This test evaluated the safening of compounds of the invention on wheat (Triticum aestivumL.) cv. ‘Retical’ by seed treatment with naphthalic anhydride. Some of the wheat seed was treated with napthalic anhydride as a 1% by weight seed dressing. The wheat seed were planted in pots containing pasteurized Sassafras sandy loam soil. For postemergence testing the plants were grown 8 days to the 2-leaf stage at time of treatment. Preemergence treatments were applied the same day that the seeds were planted. Treatments were applied by spraying the test compounds formulated in a non-phytotoxic solvent mixture, using a flat fan nozzle and a spray volume of 280 L/ha. The preemergence treatments were triply replicated and the results subsequently averaged. The pots were placed on a growth chamber bench using a complete randomized block design for the preemergence test except for the first replicate, which was unrandomized. The plants were grown in the growth chamber and watered as needed with a dilute nutrient solution containing 200 ppm of N. Illumination was provided by fluorescent lamps giving 200-300 μE/m^2/S of photosynthetically active radiation over a 14-hour photoperiod. The temperature was maintained at 23±2° C. during the day and 17±2° C. at night. The effects of the treatments were rated 25 days after preemergence treatment and 14 days after postemergence treatment. The plant response was visually rated in comparison to untreated controls using a scale of 0 to 100, with 0 representing no effect and 100 representing complete plant death. The results for the compounds tested preemergence are listed in Table H1, and the results for the compounds tested postemergence are listed in Table H2.

[4] = tested on: downy bromegrass; assay: Test A pre-/postemergence herbicide test; format: in vivo, Bromus tectorum; conditions: Preemergence, visual rating, 0 to 100 scale (0 no effect, 100 complete control)
Excerpt: Seeds of plant species selected from barnyardgrass (Echinochloa crus-galli (L.) Beauv.), downy bromegrass (Bromus tectorum L.), large crabgrass (Digitaria sanguinalis (L.) Scop.), giant foxtail (Setaria faberi Herrm.), morningglory (Ipomoea spp.), redroot pigweed (Amaranthus retroflexus L.) and velvetleaf (Abutilon theophrasti Medik.) were planted into a sandy loam soil and treated preemergence with a directed soil spray using test chemicals formulated in a non-phytotoxic solvent mixture which included a surfactant. At the same time plants selected from these species were also treated postemergence by spraying to runoff with test chemicals formulated.
Plants ranged in height from 2 to 10 cm and were in the one- to two-leaf stage for the postemergence treatment. Treated plants and untreated controls were maintained in a greenhouse for approximately ten days, after which time all treated plants were compared to untreated controls and visually evaluated for injury. Plant response ratings, summarized in Table A, are based on a 0 to 100 scale where 0 is no effect and 100 is complete control. A dash (-) response means no test results.

## CCn1nc(C(C)(C)C)cc1C(=O)Nc1cc(C(=O)N(C)C)ccc1F [Compound 6, N-[5-[(dimethylamino)carbonyl]-2-fluorophenyl]-3-(1,1-dimethylethyl)-1-ethyl-1H-pyrazole-5-carboxamide]
[1]; 62 g a.i./ha
  AVEFA Obsd.: 10
[1]; 125 g a.i./ha
  AVEFA Obsd.: 25
[2]; 62 g a.i./ha
  ALOMY Obsd.: 18
[2]; 125 g a.i./ha
  ALOMY Obsd.: 33
[3]; postemergence, 62 g a.i./ha
  Response of wheat, With 1% naphthalic anhydride seed treatment: 65
  Response of wheat, Without naphthalic anhydride seed treatment: 75
[3]; postemergence, 125 g a.i./ha
  Response of wheat, With 1% naphthalic anhydride seed treatment: 75
  Response of wheat, Without naphthalic anhydride seed treatment: 75
[3]; preemergence, 62 g a.i./ha
  Response of wheat, With 1% naphthalic anhydride seed treatment: 77
  Response of wheat, Without naphthalic anhydride seed treatment: 99
[3]; preemergence, 125 g a.i./ha
  Response of wheat, With 1% naphthalic anhydride seed treatment: 100
  Response of wheat, Without naphthalic anhydride seed treatment: 100

## CC(=NO)c1cccc(NC(=O)c2cc(C(C)(C)C)nn2C)c1 [Compound 102]
[4]; 500 g ai/ha
  Bromegrass, Downy plant response rating: 60
[4]; 2000 g ai/ha
  Bromegrass, Downy plant response rating: 60
